Target: T1, P2Y12 receptor (Homo sapiens, UniProt Q9H244)
T1 construct: expressed in transfected cells; host or cells: CHO cells (membranes)
Experiment: Functional inhibition of 2-Me-S-ADP induced P2Y12 signalling (35S-GTPγS, membranes from P2Y12 transfected CHO-cells)
Format: biochemical
Details: EC80 concentration of agonist 2-methyl-thio-adenosine diphosphate, 30° C. for 45 min
Procedure: Functional inhibition of the P2Y12 receptor can be measured by in vitro assays using cell membranes from P2Y12 transfected CHO-cells, the methodology is indicated below.
Functional inhibition of 2-Me-S-ADP induced P2Y12 signalling: 5 μg of membranes were diluted in 200 μl of 200 mM NaCl, 1 mM MgCl2, 50 mM HEPES (pH 7.4), 0.01% BSA, 30 μg/ml saponin and 10 μM GDP. To this was added an EC80 concentration of agonist (2-methyl-thio-adenosine diphosphate), the required concentration of test compound and 0.1 μCi ^35S-GTPγS. The reaction was allowed to proceed at 30° C. for 45 min. Samples were then transferred on to GF/B filters using a cell harvester and washed is with wash buffer (50 mM Tris (pH 7.4), 5 mM MgCl2, 50 mM NaCl). Filters were then covered with scintilant and counted for the amount of ^35S-GTPγS retained by the filter. Maximum activity was that determined in the presence of the agonist and minimum activity in the absence of the agonist following subtraction of the value determined for non-specific activity. The effect of compounds at various concentrations was plotted according to the equation
y=A+((B−A)/(1+((C/x)̂D)))
and IC50 estimated where A is the bottom plateau of the curve i.e. the final minimum y value B is the top of the plateau of the curve i.e. the final maximum y value C is the x value at the middle of the curve. […]

T1 sequence (Q9H244 whole entry): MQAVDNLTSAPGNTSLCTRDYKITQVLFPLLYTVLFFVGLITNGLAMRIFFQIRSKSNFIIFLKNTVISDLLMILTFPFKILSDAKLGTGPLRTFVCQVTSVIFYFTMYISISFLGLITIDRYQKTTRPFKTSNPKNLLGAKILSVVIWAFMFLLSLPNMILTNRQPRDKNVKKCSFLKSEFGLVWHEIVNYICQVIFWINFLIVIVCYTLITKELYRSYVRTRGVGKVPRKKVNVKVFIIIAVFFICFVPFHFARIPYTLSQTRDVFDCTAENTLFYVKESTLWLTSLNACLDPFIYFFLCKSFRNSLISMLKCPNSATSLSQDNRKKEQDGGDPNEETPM

- IC50: 810 nM
SMILES: CCOC(=O)c1cc(C#N)c(NC2CCC(C(=O)NS(=O)(=O)c3ccc(Cl)s3)C2)nc1C(F)(F)F (stereo not shown) [Example 3, Ethyl 6-{[3-({[(5-chloro-2-thienyl)sulfonyl]amino}carbonyl)cyclopentyl]amino}-5-cyano-2-(trifluoromethyl)nicotinate]

Reference: patent US20090286834A1, “Pyridine Analogues VI” (AstraZeneca AB, priority 2006, published 2009)
